Assay results reported in patent publication US20230277583A1, “ENTERAL CARBON MONOXIDE FOR THE PREVENTION AND TREATMENT OF OCULAR DISEASES” (Augusta University Research Institute, Inc., priority 2022, published 2023).

How the values were obtained:
[1] = cited from earlier work
[2] = CO concentration achievable in aqueous composition at various temperature and pressure; format: physicochemical
Description: For example, CO can be dissolved in an aqueous liquid under higher than ambient pressure. The use of pressure to dissolve the CO increases the achievable concentration of CO in solution. […] For example, lowering of the temperature below 2° C. and increasing the pressure above 10 ATM can achieve an even greater concentration of CO dissolved in the aqueous solution. […] Although raising the pressure above 10 ATM might not be commercially practicable, it is technologically feasible at this time.
The method of making a CO-containing liquid composition relies on the use of greater than atmospheric pressure (i.e., “high” pressure) to increase the amount of CO dissolved in the liquid composition. In some embodiments, at least 1.1 atmospheres (ATM) of pressure is used in the process of introducing CO into the liquid composition. Preferably, where high pressure is used, at least 1.2 ATM is used. In certain exemplary embodiments, 2 ATM, 3 ATM, or 5 ATM is used during introduction of CO into the liquid composition. It is contemplated that pressures above 5 ATM are also suitable, such as 6 ATM, 7 ATM, 8 ATM, and 10 ATM or higher. In accordance with the discussion concerning ranges set forth above, all specific values, and all possible ranges, falling within the atmospheric conditions discussed herein are contemplated. Furthermore, variations in the source of CO, the equipment used to introduce the CO into the liquid composition, the pressure of the CO being used (i.e., volume supplied per unit time), and the atmospheric pressures used will affect the amount of time required to achieve a suitable concentration of CO in the composition.
The method of making a CO-containing liquid composition preferably includes subjecting the composition to a low temperature during the step of exposing the liquid to CO. […] A low temperature is typically a temperature at or below 4° C., preferably at or below 2° C., such as 1° C., 0° C., −1° C., −2° C., −3° C., −4° C., −5° C., −6° C., −10° C., −12° C., −14° C., −16° C., −18° C., −20° C., or below. In embodiments where the composition is exposed to a low temperature, it is preferred that the CO-containing liquid composition be sealed to preclude loss of dissolved CO over time. Accordingly, in embodiments, the method of making a CO-containing liquid composition includes dispensing the liquid composition into a sealable container and sealing the container after an appropriate amount of CO has been dissolved in the liquid composition. Dispensing of the liquid can be performed before, during, or after dissolving CO into the liquid composition. Typically, sealing will be performed under low temperature to minimize loss of dissolved CO during the process of sealing. As discussed above, any number of sealable containers and caps are known in the art of bottling and canning of liquids, and any of these can be used within the context of the present disclosure. For the sake of clarity, in embodiments where both high pressure and low temperature are used, it is preferred that sealing be performed under both high pressure and low temperature, although the same pressure and temperature used for dissolving CO into the liquid need not be used. Further, it is to be understood that, once the CO-containing liquid is sealed in a container under CO gas, it is not necessary to maintain the sealed container at high pressure and low temperature, as the sealed container will not allow dissolved CO to escape from solution.

[3] = low dose CO reaching <20% COHb saturation; cited from earlier work

## [C-]#[O+] [CO, carbon monoxide]
[1]
  half-life of the alpha-phase of CO in the human bloodstream: 4 to 6 h
[2]; 2° C., 1 ATM
  CO Concentration Achievable in Aqueous Composition: 40 mg/L water
  CO Concentration in Aqueous Solution: 40 mg/L water
[2]; 2° C., 2 ATM
  CO Concentration Achievable in Aqueous Composition: 80 mg/L water
  CO Concentration in Aqueous Solution: 80 mg/L water
[2]; 2° C., 3 ATM
  CO Concentration Achievable in Aqueous Composition: 120 mg/L water
  CO Concentration in Aqueous Solution: 120 mg/L water
[2]; 2° C., 5 ATM
  CO Concentration Achievable in Aqueous Composition: 200 mg/L water
  CO Concentration in Aqueous Solution: 200 mg/L water
[2]; 2° C., 10 ATM
  CO Concentration Achievable in Aqueous Composition: 400 mg/L water
  CO Concentration in Aqueous Solution: 400 mg/L water
[2]; 21° C., 1 ATM
  CO Concentration Achievable in Aqueous Composition: 25 mg/L water
[3]
  safety and tolerability: safe and tolerable
